Patent US9359409B2, “Antimicrobial peptides, compositions comprising the same and uses thereof” (priority 2012, dated 2016)
Read-outs that look alike come from different tables or passages of the source. Ends that are not written are not given here.

What was measured:
[1] = system: S. aureus; assay type: cell-based
Experimental: (§1) In vitro sensitivity assay of aerobically growing bacteria, using the disc diffusion method was performed according to the standards in the M2 document of the CLSI (Clinical and Laboratory Standards Institute: Performance Standards for Antimicrobial Disk Susceptibility Tests.) using the non-amidated peptides
(§2) In brief, intermediate solutions (10×) of the antimicrobial non-amidated peptides were prepared by serial dilutions 1:2, 1:4 and 1:8 by two-fold dilutions. Then, one part of the solution of the antimicrobial peptide 10× was added to nine parts of melted bacteriological agar. The antibiotic solution was added for each dilution, in the melted agar and cooled to 45-50° C. in a water bath. Then, the agar-antibiotic mixture was placed in a Petri dish until a 3-4 mm depth was reached. The inoculum is prepared with a turbidity of 0.5 in the McFarland scale (approximately 1-2 10^8 CFU/ml). The final inoculum required for the agar dilution test is 10^4 colony forming units (CFU) per “spot” having 5-8 mm in diameter. The inoculated plates must be incubated upside down at 35° C. for a period of 16-20 hs. MIC was recorded as the value of the lower dilution completely inhibiting bacterial development, without considering the development of a single colony or a slight film caused by the inoculum deposit. The final point in these cases will correspond to the concentration at which there is more than 80% reduction in growth as compared with the control.

[2] = system: S. cohnii; assay type: cell-based
Experimental: as §1, §2

[3] = system: E. coli; assay type: cell-based
Experimental: as §1, §2

[4] = system: K. pneumoniae; assay type: cell-based
Experimental: as §1, §2

[5] = system: S. warnerii; assay type: cell-based
Experimental: as §1, §2

[6] = system: P. aeruginosa; assay type: cell-based
Experimental: as §1, §2

[7] = system: E. gallinarum
Experimental: (§3) Subsequently, an analysis of a panel of clinical isolates including strains with different resistance mechanisms against conventional antibiotics was carried out, all of which are of clinical relevance. […] In Table 3 the results for a panel of Gram negative bacteria are shown, and in Table 4 for a panel of […] bacteria. In these tables the detected gene/s responsible for the resistance against antibiotics for each strain, are included.
(§4) Antimicrobial activity was analyzed by means of the determination of the MIC (minimum inhibitory concentration) by the microdilution technique. The technique was carried out in the standard fashion according to (CLSI M07-A9 Vol. 32 No 2. January 2012). The peptide concentration range used was from 0.5 μg/mL to 512 μg/mL in two-fold serial dilutions. The used medium was MH Difco broth supplemented with cations, at a final concentration of Ca^++20-25 mg/L and Mg^++10-12.5 mg/L. The working inoculum used corresponds to a 1/100 dilution of a bacterial suspension equivalent to 0.5 in the Mc Farland scale.

[8] = system: S. haemolyticus
Experimental: as §3, §4

[9] = system: S. saprophyticus
Experimental: as §3, §4

[10] = system: E. raffinosus
Experimental: as §3, §4

[11] = system: A. baumanii
Experimental: as §3, §4

[12] = system: Escherichia coli
Experimental: (§5) The 5 designed and synthesized peptides of the invention, plus omiganan (peptide of the state of the art) were evaluated for their antimicrobial capacity in microdilution assays for determining the minimum inhibitory concentration (MIC). A first panel of 8 representative strains was analyzed in these assays, encompassing Gram positive and Gram negative bacteria. […] The lowest MIC values indicate a higher antimicrobial potency.
as §3, §4

[13] = system: human erythrocytes; experiment: Erythrocyte hemolysis assay (cytotoxicity); assay type: cell-based
Experimental: Subsequently, the capacity of the peptides of the invention for lysing human erythrocytes was evaluated, as a measure of their cytotoxicity (Table 2). The assays were carried out according to the Examples and are expressed as a percentage of total lysis obtained with either water or the surfactant Tween 20. In this assays, the lower hemolysis percentage, the lower expected cytotoxic activity.
Evaluation of cytotoxic activity was performed by means of an erythrocyte hemolysis assay (according to Pure Appl. Chem., Vol. 79, No. 4, pp. 717-728, 2007). In brief, from a volume of heparinized human whole blood, 3 times that volume of PBS is added and centrifuged 10 minutes at 1500 rpm, repeating the washing two more times. 10% blood solutions in PBS were prepared with that pellet. Subsequently, each group was added the corresponding peptide at the indicated concentration and incubated at 37° C. for 30 minutes. […]

[14] = system: Pseudomonas aeruginosa; experiment: MIC by broth microdilution; assay type: cell-based
Experimental: as §5, §3, §4

[15] = system: Staphylococcus aureus; experiment: MIC by broth microdilution; assay type: cell-based
Experimental: as §5, §3, §4

[16] = E. gallinarum M2685, resistance gene vanC1 + vanA
[17] = E. gallinarum M2723, resistance gene vanC1 + vanA
[18] = A. baumanii FAV-1, resistance gene per + oxa-51 + oxa-58
[19] = A. baumanii M5179, resistance gene oxa-51
[20] = A. baumanii M5277, resistance gene per
[21] = A. baumanii M5282, resistance gene oxa-51
[22] = A. baumanii M5949, resistance gene oxa-23 + oxa-GVI
[23] = A. baumanii M7489, resistance gene oxa-51 + tem
[24] = A. baumanii M7978, resistance gene imp
[25] = A. baumanii M9665, resistance gene oxa-51
[26] = A. baumanii M13523, resistance gene oxa-51
[27] = E. coli ABC11, resistance gene ctx-m-2
[28] = E. coli Cos15, resistance gene per + tem
[29] = E. coli LCA1, resistance gene ctx-m-2 + tem-1
[30] = E. coli M5306, resistance gene ctx-m-2 + tem-1 + per-2
[31] = E. coli M7859, resistance gene cit
[32] = E. coli NEU23, resistance gene oxa-GIII + tem
[33] = P. aeruginosa M7525, resistance gene spm
[34] = P. aeruginosa M7712, resistance gene spm
[35] = P. aeruginosa M7723, resistance gene kpc
[36] = P. aeruginosa M7728, resistance gene imp
[37] = P. aeruginosa M7907, resistance gene per
[38] = S. aureus 28, resistance gene ermA
[39] = S. aureus 33, resistance gene msrA
[40] = S. aureus 204, resistance gene ermA
[41] = S. aureus 239, resistance gene ermC
[42] = S. aureus M2832, resistance gene mecA
[43] = S. aureus M4046, resistance gene mecA
[44] = S. aureus M6784, resistance gene mecA

RIVQRIKKWLLKWKKLGY-NH2 [peptide 5, RIVQRIKKWLLKWKKLGY]
MIC in agar dilution [1]: >128 µg/mL | MIC in agar dilution [2]: 8 µg/mL | MIC in agar dilution [3]: 64 µg/mL | MIC in agar dilution [4]: >128 µg/mL | MIC in agar dilution [5]: 8 µg/mL | MIC in agar dilution [6]: >128 µg/mL | MIC [7, 16]: 16 µg/mL | MIC [7, 17]: 16 µg/mL | MIC [8]: 8 µg/mL | MIC [9]: 8 µg/mL | MIC [10]: 8 µg/mL | MIC [11, 18]: 16 µg/mL | MIC [11, 19]: 32 µg/mL | MIC [11, 20]: 8 µg/mL | MIC [11, 21]: 8 µg/mL | MIC [11, 22]: 16 µg/mL | MIC [11, 23]: 16 µg/mL | MIC [11, 24]: 8 µg/mL | MIC [11, 25]: 32 µg/mL | MIC [11, 26]: 4 µg/mL | MIC [12, 27]: 32 µg/mL | MIC [12, 28]: 64 µg/mL | MIC [12, 29]: 64 µg/mL | MIC [12, 30]: 64 µg/mL | MIC [12, 31]: 16 µg/mL | MIC [12, 32]: 32 µg/mL | therapeutic index (antimicrobial potency over the cytotoxicity percentage) ([13]; in words): highest therapeutic index values | MIC [14, 33]: 64 µg/mL | MIC [14, 34]: 64 µg/mL | MIC [14, 35]: 32 µg/mL | MIC [14, 36]: 64 µg/mL | MIC [14, 37]: 64 µg/mL | MIC [15, 38]: 64 µg/mL | MIC [15, 39]: 64 µg/mL | MIC [15, 40]: 32 µg/mL | MIC [15, 41]: 64 µg/mL | MIC ([15]; S. aureus ATCC29213, WT): 32 µg/mL | MIC [15, 42]: 64 µg/mL | MIC [15, 43]: 32 µg/mL | MIC ([15]; S. aureus M6276, resistance gene ermA + lnuA): 64 µg/mL | MIC [15, 44]: 32 µg/mL

GLLKKWLKKWKEFKRIVGY-NH2 [peptide 2, GLLKKWLKKWKEFKRIVGY]
MIC in agar dilution [1]: >128 µg/mL | MIC in agar dilution [2]: 16 µg/mL | MIC in agar dilution [3]: 128 µg/mL | MIC in agar dilution [4]: 64 µg/mL | MIC in agar dilution [5]: 8 µg/mL | MIC in agar dilution [6]: >128 µg/mL | MIC [7, 16]: 16 µg/mL | MIC [7, 17]: 32 µg/mL | MIC [8]: 8 µg/mL | MIC [10]: 8 µg/mL | MIC [11, 18]: 16 µg/mL | MIC [11, 19]: 32 µg/mL | MIC [11, 20]: 32 µg/mL | MIC [11, 21]: 8 µg/mL | MIC [11, 22]: 32 µg/mL | MIC [11, 23]: 8 µg/mL | MIC [11, 24]: 16 µg/mL | MIC [11, 25]: 4 µg/mL | MIC [11, 26]: 32 µg/mL | MIC [12, 27]: 32 µg/mL | MIC [12, 28]: 64 µg/mL | MIC [12, 29]: 64 µg/mL | MIC [12, 30]: 4 µg/mL | MIC [12, 31]: 32 µg/mL | MIC ([12]; E. coli M9209, resistance gene kpc): 64 µg/mL | MIC [12, 32]: 32 µg/mL | hemolysis values (in words) [13]: high hemolysis values | MIC [14, 33]: 64 µg/mL | MIC [14, 34]: 64 µg/mL | MIC [14, 35]: 64 µg/mL | MIC [14, 36]: 64 µg/mL | MIC [14, 37]: 64 µg/mL | MIC [15, 38]: 64 µg/mL | MIC [15, 39]: 128 µg/mL | MIC [15, 40]: 64 µg/mL | MIC [15, 41]: 64 µg/mL | MIC ([15]; S. aureus ATCC29213, WT): 64 µg/mL | MIC [15, 42]: 128 µg/mL | MIC [15, 43]: 128 µg/mL | MIC [15, 44]: 32 µg/mL
